# Where a name gives a salt, the structure may show the parent alone.
row,SMILES,melting point
1,"Cc1nc(OCCOc2ccccc2)c(N2CCNCC2)nc1C (as salt: hydrochloride) [Example 183, 5,6-Dimethyl-2-(2-phenoxyethoxy)-3-(1-piperazinyl)pyrazine]",138 to 140 °C
2,"c1ccc(OCCOc2nc3ccccc3nc2N2CCNCC2)cc1 (as salt: hydrochloride) [Example 3, 2-(2-Phenoxyethoxy)-3-(1-piperazinyl)quinoxaline]",123 to 126 °C
3,"CC1CNCCN1c1nc2ccccc2nc1OCCOc1cccc2c1OCO2 (stereo not shown) (as salt: hydrochloride) [Example 182, 2-[2-(1,3-Benzodioxol-4-yloxy)ethoxy]-3-(2-methyl-1-piperazinyl)quinoxaline]",133 to 138 °C
4,"CCOc1ncccc1OCCOc1nccnc1N1CCNCC1 (as salt: fumarate) [Example 199, 2-{2-[(2-Ethoxy-3-pyridinyl)oxy]ethoxy}-3-(1-piperazinyl)pyrazine]",186 °C
5,"CSc1ncccc1OCCOc1nccnc1N1CCNC[C@H]1C (as salt: fumarate) [Example 198, (2R)-2-Methyl-1-[3-(2-{[2-(methylsulfanyl)-3-pyridinyl]oxy}ethoxy)-2-pyrazinyl]piperazine]",179 °C
6,"CC(=O)Nc1cccc(OCCOc2nccnc2N2CCNCC2)c1 (as salt: maleate) [Example 119, 2-[2-(3-Acetamidophenoxy)ethoxy]-3-(1-piperazinyl)pyrazine]",154 to 155 °C
7,"c1cncc(OCCOc2nccnc2N2CCNCC2)c1 (as salt: hydrochloride) [Example 150, 2-(3-Pyridyloxy)ethyl 3-(1-piperazinyl)-2-pyrazinyl ether]",170 to 175 °C
8,"c1ccc2c(c1)CCC(COc1nccnc1N1CCNCC1)C2 (stereo not shown) (as salt: fumarate) [Example 207, 3-(1-piperazinyl)-2-pyrazinyl 1,2,3,4-tetrahydro-2-naphthalenylmethyl ether]",186 to 188 °C
9,"CNc1ccc2cccc(OCCOc3nccnc3N3CCNCC3)c2n1 [Example 181, N-Methyl-8-(2-{[3-(1-piperazinyl)-2-pyrazinyl]oxy}ethoxy)-2-quinolinamine]",54 to 56.5 °C
10,"c1ccc(Nc2ccc(OCCOc3nccnc3N3CCNCC3)cc2)cc1 (as salt: maleate) [Example 111, N-Phenyl-4-(2-{[3-(1-piperazinyl)-2-pyrazinyl]oxy}ethoxy)aniline]",132 to 133 °C
11,"CC1(C)Cc2cccc(OCCOc3nccnc3N3CCNCC3)c2O1 (as salt: maleate) [Example 158, 2-(2,3-Dihydro-2,2-dimethyl-7-benzofuranyloxy)ethyl 3-(1-piperazinyl)-2-pyrazinyl ether]",156 to 157 °C
12,"c1cnc(N2CCNCC2)c(OCCOc2ccc3c(c2)OCCO3)n1 (as salt: hydrochloride) [Example 210, 2-[2-(2,3-Dihydro-1,4-benzodioxin-6-yloxy)ethoxy]-3-(1-piperazinyl)pyrazine]",158 to 160 °C
13,"c1cnc(N2CCNCC2)c(OCCOc2ccc3cc[nH]c3c2)n1 [Example 142, 6-(2-{[3-(1-piperazinyl)-2-pyrazinyl]oxy}ethoxy)-1H-indole]",111 to 113 °C
14,"c1ccc(OCCCCOc2nccnc2N2CCNCC2)cc1 (as salt: hydrochloride) [Example 98, 4-(Phenoxy)butyl 3-(1-piperazinyl)-2-pyrazinyl ether]",129 to 131 °C
15,"C[C@@H]1CNCCN1c1nccnc1OCCOc1cccnc1Br (as salt: fumarate) [Example 196, (2R)-1-(3-{2-[(2-Bromo-3-pyridinyl)oxy]ethoxy}-2-pyrazinyl)-2-methylpiperazine]",154 °C
16,"c1ccc2c(c1)CCC(COc1nc3ccccc3nc1N1CCNCC1)O2 (stereo not shown) (as salt: salt) [Example 168, 2-(3,4-Dihydro-2H-chromen-2-ylmethoxy)-3-(1-piperazinyl)quinoxaline]",202 to 204 °C
17,"c1ccc(OCCOc2cccnc2N2CCNCC2)cc1 (as salt: hydrochloride) [Example 185, 1-[3-(2-Phenoxyethoxy)-2-pyridinyl]piperazine]",91 to 120 °C
18,"c1cncc(CCCOc2nccnc2N2CCNCC2)c1 (as salt: maleate) [Example 126, 2-(1-piperazinyl)-3-[3-(3-pyridinyl)propoxy]pyrazine]",128 to 130 °C
19,"c1cnc2cc(OCCOc3nccnc3N3CCNCC3)ccc2c1 (as salt: maleate) [Example 137, 2-(7-Quinolinyloxy)ethyl 3-(1-piperazinyl)-2-pyrazinyl ether]",156 to 158 °C
20,"c1ccc2nc(N3CCNCC3)c(OCCOc3cncnc3)nc2c1 [Example 166, 2-[2-(5-Pyrimidinyloxy)ethoxy]-3-(1-piperazinyl)quinoxaline]",115 to 117 °C
21,"c1cnc(N2CCNCC2)c(OCCOc2ccsc2)n1 (as salt: hydrochloride) [Example 157, 2-(3-Thienyloxy)ethyl 3-(1-piperazinyl)-2-pyrazinyl ether]",75 to 85 °C
22,"COc1ccc(F)cc1OCCOc1nccnc1N1CCNCC1 (as salt: fumarate) [Example 100, 2-[2-(5-Fluoro-2-methoxyphenoxy)ethoxy]-3-(1-piperazinyl)pyrazine]",172 to 176 °C
23,"Clc1ccc(OCCOc2nc3ccccc3nc2N2CCNCC2)cc1 [Example 39, 2-[2-(4-Chlorophenoxy)ethoxy]-3-(1-piperazinyl)quinoxaline]",108 to 112 °C
24,"Cc1ccc(OCCOc2nccnc2N2CCNC[C@H]2C)cn1 (as salt: fumarate) [Example 176, (2R)-2-Methyl-1-(3-{2-[(6-methyl-3-pyridinyl)oxy]ethoxy}-2-pyrazinyl)piperazine]",115 °C (dec.)
25,"Clc1cc2nc(OCCOc3cccnc3)c(N3CCNCC3)nc2cc1Cl (as salt: maleate) [Example 164, 2-[2-(3-Pyridinyloxy)ethoxy]-3-(1-piperazinyl)-6,7-dichloroquinoxaline]",187 to 189 °C
26,"c1cc(OCCOc2nccnc2N2CCNCC2)c2c(c1)OCCO2 [Example 79, 2-(2,3-Dihydro-1,4-benzodioxin-5-yloxy)ethyl 3-(1-piperazinyl)-2-pyrazinyl ether]",98 to 99 °C
27,"CN1CCN(c2nccnc2OCC2COc3ccccc3O2)CC1 (stereo not shown) (as salt: hydrochloride) [Example 169, 2,3-Dihydro-1,4-benzodioxin-2-ylmethyl 3-(4-methyl-1-piperazinyl)-2-pyrazinyl ether]",160 to 167 °C
28,"O=[N+]([O-])c1ccc2c(c1)OC(COc1nccnc1N1CCNCC1)CO2 (stereo not shown) [Example 146, 2-(7-Nitro-2,3-dihydro-1,4-benzodioxin-2-ylmethoxy)-3-(1-piperazinyl)pyrazine]",133 to 135 °C
29,"Fc1cc2nc(OCCOc3cccnc3)c(N3CCNCC3)nc2cc1F (as salt: maleate) [Example 163, 2-[2-(3-Pyridinyloxy)ethoxy]-3-(1-piperazinyl)-6,7-difluoroquinoxaline]",110 to 115 °C

# Next, values leading:
row,melting point,SMILES
1,171 to 173 °C,"Fc1ccccc1OCCOc1nccnc1N1CCNCC1 (as salt: maleate) [Example 95, 2-(2-Fluorophenoxy)ethyl 3-(1-piperazinyl)-2-pyrazinyl ether]"
2,101 to 103 °C,"c1ccc(-c2ccccc2OCCOc2nccnc2N2CCNCC2)cc1 [Example 97, 2-[(1,1′Biphenyl)-2-yloxy]ethyl 3-(1-piperazinyl)-2-pyrazinyl ether]"
3,130 to 132 °C,"c1ccc(OCCOc2nccnc2N2CCNCC2)nc1 (as salt: maleate) [Example 152, 2-(2-Pyridyloxy)ethyl 3-(1-piperazinyl)-2-pyrazinyl ether]"
4,125 to 130 °C,"Fc1cccc(OCCOc2nccnc2N2CCNCC2)c1F (as salt: fumarate) [Example 105, 2-[2-(2,3-Difluorophenoxy)ethoxy]-3-(1-piperazinyl)pyrazine]"
5,147 to 149 °C,"c1ccc2c(OCCOc3nccnc3N3CCNCC3)csc2c1 (as salt: maleate) [Example 156, 2-[2-(1-Benzothien-3-yloxy)ethoxy]-3-(1-piperazinyl)pyrazine]"
6,146 to 146.5 °C,"c1ccc(OCCCOc2nccnc2N2CCNCC2)cc1 (as salt: hydrochloride) [Example 90, 3-(Phenoxy)propyl 3-(1-piperazinyl)-2-pyrazinyl ether]"
7,138 to 140 °C,"Nc1nc2c(OCCOc3nccnc3N3CCNCC3)cccc2o1 (as salt: fumarate) [Example 21, 4-(2-{[3-(1-piperazinyl)-2-pyrazinyl]oxy}ethoxy)-1,3-benzoxazol-2-amine]"
8,191 to 193 °C,"c1cc(OCCOc2nccnc2N2CCNCC2)c2ncoc2c1 (as salt: maleate) [Example 159, 2-(1,3-Benzoxazol-4-yloxy)ethyl 3-(1-piperazinyl)-2-pyrazinyl ether]"
9,201 °C,"CSc1ncccc1OCCOc1nccnc1N1CCNCC1 (as salt: fumarate) [Example 197, 2-(2-{[2-(Methylsulfanyl)-3-pyridinyl]oxy}ethoxy)-3-(1-piperazinyl)pyrazine]"
10,178 to 180.5 °C,"c1cc(OCCOc2nccnc2N2CCNCC2)c2ccncc2c1 (as salt: maleate) [Example 134, 2-(5-Isoquinolinyloxy)ethyl 3-(1-piperazinyl)-2-pyrazinyl ether]"
11,165 to 166 °C,"N#Cc1ccccc1OCCOc1nccnc1N1CCNCC1 (as salt: maleate) [Example 96, 2-(2-Cyanophenoxy)ethyl 3-(1-piperazinyl)-2-pyrazinyl ether]"
12,79 to 80 °C,"FC(F)(F)c1ccccc1OCCOc1nccnc1N1CCNCC1 [Example 91, 2-(2-Trifluoromethylphenoxy)ethyl 3-(1-piperazinyl)-2-pyrazinyl ether]"
13,149 to 154 °C,"c1cc2c(c(OCCOc3nccnc3N3CCNCC3)c1)OCC2 (as salt: maleate) [Example 186, 2-(2,3-Dihydrobenzofuran-7-yloxy)ethyl 3-(1-piperazinyl)-2-pyrazinyl ether]"
14,50 °C (dec.),"Cc1ncccc1OCCOc1nccnc1N1CCNCC1 (as salt: hydrochloride) [Example 154, 2-(2-Methyl-3-pyridyloxy)ethyl 3-(1-piperazinyl)-2-pyrazinyl ether]"

# Reference: patent US7071180B2, “Certain arylaliphatic and heteroaryl-aliphatic piperazinyl pyrazines and their use in the treatment of serotonin-related diseases” (Biovitrum AB, priority 1999, dated 2006)
